Patent US12497396B2, “Nitrogen-containing heterocyclic derivatives, method therefor and application therefor as inhibitors of KRAS G12C for the treatment of cancers” (SHANGHAI HANSOH BIOMEDICAL CO., LTD., priority 2019, dated 2025)
Like-named read-outs stand apart in the source and are kept apart here.

How the values were obtained:
Assay type in all cases: in vitro ADME
CYP2D6 = target: T1, CYP2D6 (Homo sapiens, UniProt P10635); assay: CYP enzyme single point inhibition, human liver microsomes, 2D6; details: single point method
T1 construct: from tissue; host or cells: human liver microsomes
T1 sequence (P10635 whole entry): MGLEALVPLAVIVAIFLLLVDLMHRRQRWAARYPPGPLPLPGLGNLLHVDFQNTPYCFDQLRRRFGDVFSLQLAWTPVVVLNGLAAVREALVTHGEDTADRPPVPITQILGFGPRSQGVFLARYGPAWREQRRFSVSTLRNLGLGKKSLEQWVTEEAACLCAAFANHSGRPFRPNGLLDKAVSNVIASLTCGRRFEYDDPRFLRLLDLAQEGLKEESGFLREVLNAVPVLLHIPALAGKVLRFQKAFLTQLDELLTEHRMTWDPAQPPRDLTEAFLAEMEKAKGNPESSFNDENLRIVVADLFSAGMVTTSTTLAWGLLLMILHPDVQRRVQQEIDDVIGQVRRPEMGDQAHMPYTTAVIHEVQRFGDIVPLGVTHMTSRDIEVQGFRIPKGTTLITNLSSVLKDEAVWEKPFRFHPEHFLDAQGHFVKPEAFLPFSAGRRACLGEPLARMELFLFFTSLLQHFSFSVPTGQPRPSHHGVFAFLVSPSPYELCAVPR
Description: (§1) Using human liver microsomal incubation system, the inhibition of CYP450 enzyme subtypes by compounds was rapidly predicted by single point method.
(§2) 2.5 mM NADPH: 100 mM phosphate buffer was added to 4.165 mg of NADPH (reduced nicotinamide adenine dinucleotide phosphate) to 2 mL. 0.25 mg/mL microsome: 4 mL of 100 mM phosphate buffer was added to 50 μL of 20 mg/mL microsome and mixed well.
(§3) The embodiment compound to be tested was weighed and diluted to 10 mM with DMSO and then diluted to 100 μM with 100 mM phosphate buffer.
(§4) • 1. In a 96-well plate, 40 μL of liver microsomes, 10 μL of substrate, 10 μL of compound to be tested were pre-incubated for 3 min. • 2. 40 μL of NADPH was added. • 3. 300 μL of acetonitrile termination solution containing internal standard was added at 20 min. • 4. Centrifugal injection.

CYP2C19 = target: T2, CYP2C19 (Homo sapiens, UniProt P33261); assay: CYP enzyme single point inhibition, human liver microsomes, 2C19; details: single point method
T2 construct: from tissue; host or cells: human liver microsomes
T2 sequence (P33261 whole entry): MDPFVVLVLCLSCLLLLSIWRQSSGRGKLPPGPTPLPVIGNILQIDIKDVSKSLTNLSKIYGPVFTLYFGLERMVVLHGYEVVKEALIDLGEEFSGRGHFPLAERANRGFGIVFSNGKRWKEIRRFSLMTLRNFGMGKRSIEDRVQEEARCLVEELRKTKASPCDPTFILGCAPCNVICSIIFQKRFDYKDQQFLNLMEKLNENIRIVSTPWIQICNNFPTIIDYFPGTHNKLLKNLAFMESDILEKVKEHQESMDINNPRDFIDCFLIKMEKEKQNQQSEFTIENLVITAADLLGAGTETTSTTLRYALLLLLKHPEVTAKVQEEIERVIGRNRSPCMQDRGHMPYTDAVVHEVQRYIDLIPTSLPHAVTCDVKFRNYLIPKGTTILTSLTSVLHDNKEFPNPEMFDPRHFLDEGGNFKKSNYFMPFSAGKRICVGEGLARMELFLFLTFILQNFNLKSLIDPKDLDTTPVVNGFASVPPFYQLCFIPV
Description: as §1, §2, §3, §4

CYP3A4 = target: T3, CYP3A4 (Homo sapiens, UniProt P08684); assay: CYP enzyme single point inhibition, human liver microsomes, 3A4; details: single point method
T3 construct: from tissue; host or cells: human liver microsomes
T3 sequence (P08684 whole entry): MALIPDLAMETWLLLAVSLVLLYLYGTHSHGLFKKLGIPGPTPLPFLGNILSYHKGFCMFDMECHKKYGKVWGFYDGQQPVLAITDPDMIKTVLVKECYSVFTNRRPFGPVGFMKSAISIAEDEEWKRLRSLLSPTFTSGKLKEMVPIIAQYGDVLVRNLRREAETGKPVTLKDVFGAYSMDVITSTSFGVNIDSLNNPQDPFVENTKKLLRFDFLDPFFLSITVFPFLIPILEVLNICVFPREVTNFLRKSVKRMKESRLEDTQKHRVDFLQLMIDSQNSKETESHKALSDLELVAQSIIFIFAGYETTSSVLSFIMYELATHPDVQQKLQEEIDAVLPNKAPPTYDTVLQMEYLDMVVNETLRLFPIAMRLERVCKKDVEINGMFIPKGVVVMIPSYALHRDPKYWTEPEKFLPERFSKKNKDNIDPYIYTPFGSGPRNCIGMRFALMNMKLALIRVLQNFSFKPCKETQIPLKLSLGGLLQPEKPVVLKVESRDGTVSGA
Description: as §1, §2, §3, §4

CYP2C9 = target: T4, CYP2C9 (Homo sapiens, UniProt P11712); assay: CYP enzyme single point inhibition, human liver microsomes, 2C9; details: single point method
T4 construct: from tissue; host or cells: human liver microsomes
T4 sequence (P11712 whole entry): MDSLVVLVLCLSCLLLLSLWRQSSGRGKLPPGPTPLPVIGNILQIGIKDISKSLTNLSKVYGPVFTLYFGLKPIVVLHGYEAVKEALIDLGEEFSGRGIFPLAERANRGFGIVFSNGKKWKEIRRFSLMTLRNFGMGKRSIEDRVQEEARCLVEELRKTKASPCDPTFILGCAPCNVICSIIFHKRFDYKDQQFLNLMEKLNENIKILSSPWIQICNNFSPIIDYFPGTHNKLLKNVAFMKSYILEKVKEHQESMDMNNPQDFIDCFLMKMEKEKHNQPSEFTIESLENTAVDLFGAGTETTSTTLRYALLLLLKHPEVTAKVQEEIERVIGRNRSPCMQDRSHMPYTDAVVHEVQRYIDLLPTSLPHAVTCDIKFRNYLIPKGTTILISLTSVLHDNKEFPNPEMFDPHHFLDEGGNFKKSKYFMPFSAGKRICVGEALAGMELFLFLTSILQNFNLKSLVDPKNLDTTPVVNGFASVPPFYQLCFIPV
Description: as §1, §2, §3, §4

CYP1A2 = target: T5, CYP1A2 (Homo sapiens, UniProt P05177); assay: CYP enzyme single point inhibition, human liver microsomes, 1A2; details: single point method
T5 construct: from tissue; host or cells: human liver microsomes
T5 sequence (P05177 1-516): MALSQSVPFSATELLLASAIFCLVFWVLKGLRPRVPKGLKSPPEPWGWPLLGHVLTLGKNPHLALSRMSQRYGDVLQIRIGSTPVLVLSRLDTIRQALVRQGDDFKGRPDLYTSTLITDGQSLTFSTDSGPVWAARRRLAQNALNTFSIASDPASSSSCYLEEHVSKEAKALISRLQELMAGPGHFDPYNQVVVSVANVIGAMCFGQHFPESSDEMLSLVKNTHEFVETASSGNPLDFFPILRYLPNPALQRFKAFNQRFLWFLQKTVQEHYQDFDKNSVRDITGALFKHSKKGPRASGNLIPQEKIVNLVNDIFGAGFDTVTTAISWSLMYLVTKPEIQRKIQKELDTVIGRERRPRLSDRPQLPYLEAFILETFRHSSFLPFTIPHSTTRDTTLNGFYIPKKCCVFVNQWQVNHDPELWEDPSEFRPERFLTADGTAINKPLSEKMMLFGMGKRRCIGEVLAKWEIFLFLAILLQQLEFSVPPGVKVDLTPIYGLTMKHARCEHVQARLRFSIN
Description: Using human liver microsomal incubation system, the inhibition of CYP450 enzyme subtypes by compounds was rapidly predicted by single point method. 2.5 mM NADPH: 100 mM phosphate buffer was added to 4.165 mg of NADPH (reduced nicotinamide adenine dinucleotide phosphate) to 2 mL. 0.25 mg/mL microsome: 4 mL of 100 mM phosphate buffer was added to 50 μL of 20 mg/mL microsome and mixed well. The embodiment compound to be tested was weighed and diluted to 10 mM with DMSO and then diluted to 100 μM with 100 mM phosphate buffer. • 1. In a 96-well plate, 40 μL of liver microsomes, 10 μL of substrate, 10 μL of compound to be tested were pre-incubated for 3 min. • 2. 40 μL of NADPH was added. • 3. 300 μL of acetonitrile termination solution containing internal standard was added at 20 min. • 4. Centrifugal injection.

in vitro = details: for half-life at 0.5 μM: plasma
Description: Animal or human whole blood was collected, then the blood was put into a test tube containing anticoagulant, centrifuged at 3500 rpm for 10 min, and the upper layer of pale yellow plasma was collected. • 2), 10 μM of tested compound (m/M/V=C)
The compound was weighed, the stock solution was prepared with DMSO and the working solution was prepared with 100 mM phosphate buffer. • 3), 10 μM of positive control (1) Propantheline (Propantheline Mr=449.4 Da)
• 1) 285 μL of plasma and 15 μL of 10 μM compound (tested compound) were added in turn in a 96-well plate, and incubated at 37° C. • 2) 40 μL was taken out at 0, 15, 30, 60, 90, 120 min, respectively, and 160 μL of acetonitrile termination solution containing internal standard was added. • 3) After centrifugation (3500 rpm, 10 min), 50 μL of supernatant was taken out, and then diluted with 50 μL DDH2O and injected to LC-MS/MS.
• Instrument: Shimadzu LC-20 AD • Chromatographic column: phenomenex Gemiu® C18 (50*4.6 mm, 5 μM particle size); • mobile phase: A: acetonitrile, B: 0.1% formic acid solution […], 2.0-2.1 min: 90% A→5% A; flow rate: 0.8 mL/min; running time: 5.0 min; injection volume: 5 μL.
• Instrument: API4000 Liquid Chromatography-Mass Spectrometry, AB, USA; • the ion source was electrospray ionization source (ESI); • the temperature of dry gas (N2) was 500° C.; • electrospray voltage was 5500V; • the detection method was positive ion detection; • the scanning mode was selective response monitoring (MRM). • the scanning time was 0.1 s.

[1] = 3A4-M, read-out: IC50 (nM) 3A4-M
[2] = 3A4-T, read-out: IC50 (nM) 3A4-T

For `C=CC(=O)N1C[C@H](C)N(c2nc(=O)n(-c3c(SC)ccnc3C(C)C)c3nc(-c4c(O)cccc4F)c(F)cc23)C[C@H]1C` (single isomer, unassigned) [Embodiment 114-1], the IC50 (CYP2D6) was > 100 nM, the IC50 (CYP2C19) was > 100 nM and the IC50 (CYP3A4; [1]) was 19 nM. The IC50 (CYP3A4; [2]) was > 100 nM, the IC50 (CYP2C9) was 84.6 nM and the IC50 (CYP1A2) was > 100 nM.

`C=CC(=O)N1C[C@H](C)N(c2nc(=O)n(-c3c(SC)ccnc3C(C)C)c3nc(-c4c(N)ccc(Cl)c4F)c(Cl)cc23)C[C@H]1C` (single isomer, unassigned) [Embodiment 165-1] gave an IC50 (CYP2D6) of 21.2 nM, an IC50 (CYP2C19) of 28.8 nM and an IC50 (CYP3A4; [1]) of 4.7 nM. For the same molecule, the IC50 (CYP3A4; [2]) was 9.1 nM, the IC50 (CYP2C9) was 58.8 nM and the IC50 (CYP1A2) was 66.7 nM. The “Residual rate (%) 0 min” value (in vitro; human, 0.5 μM) was 100.00%, the “Residual rate (%) 15 min” value (in vitro; human, 0.5 μM) was 102.34% and the “Residual rate (%) 30 min” value (in vitro; human, 0.5 μM) was 100.28%. The “Residual rate (%) 60 min” value (in vitro; human, 0.5 μM) was 90.27%, the “Residual rate (%) 120 min” value (in vitro; human, 0.5 μM) was 87.22% and the half-life at 0.5 μM (in vitro; human) was 8.35 h. For the same molecule, the “Residual rate (%) 0 min” value (in vitro; mouse, 0.5 μM) was 100.00%, the “Residual rate (%) 15 min” value (in vitro; mouse, 0.5 μM) was 100.58% and the “Residual rate (%) 30 min” value (in vitro; mouse, 0.5 μM) was 99.52%. The “Residual rate (%) 60 min” value (in vitro; mouse, 0.5 μM) was 99.64%, the “Residual rate (%) 120 min” value (in vitro; mouse, 0.5 μM) was 92.32% and the half-life at 0.5 μM (in vitro; mouse) was 16.9 h.

For `C=CC(=O)N1C[C@H](C)N(c2nc(=O)n(-c3c(SC)ccnc3C(C)C)c3nc(-c4c(O)cccc4F)c(Cl)cc23)C[C@H]1C` (single isomer, unassigned) [Embodiment 166-1], the “Residual rate (%) 0 min” value (in vitro; human, 0.5 μM) was 100.00%, the “Residual rate (%) 15 min” value (in vitro; human, 0.5 μM) was 99.15% and the “Residual rate (%) 30 min” value (in vitro; human, 0.5 μM) was 94.74%. The “Residual rate (%) 60 min” value (in vitro; human, 0.5 μM) was 89.14%, the “Residual rate (%) 120 min” value (in vitro; human, 0.5 μM) was 78.85% and the half-life at 0.5 μM (in vitro; human) was 5.64 h. The “Residual rate (%) 0 min” value (in vitro; mouse plasma, 37° C.) was 100.00%, the “Residual rate (%) 15 min” value (in vitro; mouse plasma, 37° C.) was 105.42% and the “Residual rate (%) 30 min” value (in vitro; mouse plasma, 37° C.) was 100.02%. For the same molecule, the “Residual rate (%) 60 min” value (in vitro; mouse plasma, 37° C.) was 99.12%, the “Residual rate (%) 120 min” value (in vitro; mouse plasma, 37° C.) was 85.55% and the half-life at 0.5 μM (in vitro; mouse) was 7.75 h.
